Experimental findings from patent publication US20190374628A1, “MUTATED FRAGMENTS OF THE RAS PROTEIN” (Targovax ASA, priority 2015, published 2019) are described below.

In one assay the test system is splenocytes. Description: Splenocyte proliferation assay (3H-thymidine) after subcutaneous vaccination of mice with TG02. It is filed as cell-based, BALB/c mice. To be noted: ex vivo 10 μM TG02 per peptide or 1 μg/200 μL ConA, 5 days; for Counts per minute (CPM) of stimulated splenocytes: single replicates. The method, then: In this Example, mice were repeatedly vaccinated subcutaneously with TG02, in order to analyse the immune response. Following the vaccination, splenocytes were harvested, and the proliferative response of the splenocytes was measured.
The study was conducted with 3 groups, each compromising 10 female BALB/c mice. The start of the study was performed on two separate days on which 5 of the animals per group were treated. Therefore the groups were divided into part I and part II. The animals were treated subcutaneously at different time points (Table 30).
In all groups the test item was administered at repeated time points (Table 33) by subcutaneous injection between the nape of the neck and the shoulder. The application volume for all groups was 0.1 mL (0.80 mg TG02).
The spleen of all animals was removed, transferred to cell culture medium (RPMI 1640 medium supplemented with 10% FCS, 100 U/mL Penicillin, 100 μg/mL Streptomycin, 2 mM L-Glutamine, and 50 μM beta-mercaptoethanol) and stored on ice. All steps were performed sterile and cells were kept on ice.
A single cell suspension from splenic cells was generated using a cell strainer. After centrifugation (350 g, 5 min, 5±3° C.), supernatant was removed and the cell pellet was resuspended in ACK buffer and incubated for 5 min at RT. 10 mL cell culture medium was added. The samples were left 5 min on bench top to let the cell debris sediment. The suspension above the cell debris was transferred into another tube and was centrifuged (350 g, 5 min, 5±3° C.). The supernatant was removed and the cell pellet was resuspended in 10 mL cell culture medium. After counting of cells, 0.2 Mio cells were seeded in a 96 well plate (180 μL per well; 1,1*10^6 cells/mL). 9 replicates were plated on each plate for each spleen.
The following stimulations were performed: • 3 replicates: unstimulated (addition of 20 μL cell culture medium) • 3 replicates: stimulation with 10 μM TG02 (8 peptides, 10 μM end concentration per peptide, addition in 20 μL cell culture medium) • 3 replicates: stimulation with 1 μg/200 μL ConA (Concanavalin A) (addition of 1 μg ConA in 20 μL cell culture medium)
Incubation at 37° C. and 5% CO2 for 24 h (1), 48 h (2) or 5 days (3).
Proliferation Assay • (3) After 5 days, 1 μCi/well ^3H-Thymidine was added to the samples, which were then incubated for 18 h at 37° C. and 5% CO2. The plates were then frozen at […]
Plates were thawed at RT. After washing off the harvester, the samples were transferred to a filter plate using the harvester followed by 5 washing steps using water. Filter plates were dried at RT overnight. A foil was stuck to the bottom of the filter plates and 20 μL scintillation fluid was added to the wells. After incubation of 1 h at RT, the samples were measured using a TopCount NXT and the stimulation index (SI) was calculated. SI=CPM of stimulated samples/CPM of control samples.

Assay [1] deals with T-cells. The experiment in a line: 3-day T-cell proliferation assay after stimulation of buffy coat PBMCs with TGX3 or A146T peptide. It is filed as cell-based, human. To be noted: buffy coat of healthy donor (buffy 5), FIG. 11. The source says: In this Example, Buffy coats were collected from three normal donors (Buffy 5, Buffy 6, and Buffy 7) for testing of T cell responses to selected peptides reflecting exon 2, 3 and 4 mutations in RAS. The standard operating procedure (SOP) for monitoring of T cell responses in clinical studies with KRAS peptide vaccination (TG01) was used for testing of peptide cocktail TGX3 and individual peptides.
Peptide cocktail TGX3 was a mixture of equimolar amounts of A146T+G13C+G13D+Q61R.
The procedure was performed at room temperature. All handling of cells in the open was done in a vertical laminar flow hood. • 1. 3 Buffy coats were ordered from Blodbanken, Ulleval, OUS, Norway • 2. PBMCs were isolated according to methods C001-003 (platelet-low). • 3. The number of viable cells was counted using KOVA Galsstic slides and the cell concentration adjusted to 4×10^6 cells/ml in complete CellGro DC medium (see recipe). Total cell numbers: Buffy 5-585×10^6, Buffy 6-360×10^6, and Buffy 7-405×10^6 cells. […]
c) Second Stimulation (Day 14) of Bulk Cultures • 1. Day 14: Harvested, washed and counted T-cells in the bulk cultures from 6.2; […]
d) Third Stimulation (Day 19) and Testing for Specificities in 3-Day T-Cell Proliferation Assay—Bulk Cultures • 1. Day 19: Harvested, washed and counted T-cells in the bulk cultures from 6.3; […]

In assay [2] the test system is T-cells. Description: Bulk cultures for increasing number of TGX3 and peptide reactive T-cells: total T cell numbers. The assay is classed as cell-based, human. The conditions noted are these: for Total T cell numbers in cultures: Day 14, after first stimulation, 10 μM of each peptide; for Total T cell numbers: Day 19, after second stimulation. The procedure: b) First Stimulation—Bulk Cultures for Increasing Number of TGX3 and Peptide Reactive T-Cells • 1. Transfered 1 ml of the different PBMCs (4×10^6 cells/ml in DC medium) to each well in a 24-well plate.
• 2. Added TGX3-mix/single peptide to each well for a final concentration of 10 μM of each peptide. • 3. Cultured the cells in a humidified incubator at 37° C./5% CO2 for 3 days • 4. Day 3: Added a final concentration of 20 iU/ml of recombinant human interleukin-2 (rIL-2, b#77) and final concentration of 5 ng/ml recombinant human IL-7 (b#25) to the cell cultures and continued incubation at 37° C./5% CO2. This depended on how fast the cells were growing and needed to be decided by a trained person with T-cell culture experience (according to checklist for training, Section for Cell Therapy). • 5. Days 4-12: Cells were checked regularly under the microscope and split when required (500 μl was withdrawn from each well and replaced with 500 μl fresh CellGro DC medium, supplemented with 20 iU/ml IL-2 and 5 ng/ml IL-7) and wells with slow growing cells were mixed together.
c) Second Stimulation (Day 14) of Bulk Cultures • 1. Day 14: Harvested, washed and counted T-cells in the bulk cultures from 6.2;
Bulk culture cells (ca 2×10^6 T cells/well) were re-stimulated once more with autologous irradiated (30 Gy) APCs (ca 2×10^6 APCs/well) added their respective peptides (as described in step b) above). • 2. Cultured the cells in a humidified incubator at 37° C./5% CO2 for 3 days. • 3. Day 3 after second stimulation (i.e. Day 17 of the procedure): A final concentration of 20 iU/ml of recombinant human interleukin-2 (rIL-2, b#77) and final concentration of 5 ng/ml recombinant human IL-7 (b#25) were added to the cell cultures and continued incubation at 37° C./5% CO2 (as described in step b) above). • 4. Day 18-26: Cells were checked regularly under the microscope and split when required (500 μl was withdrawn from each well and replaced with 500 μl fresh CellGro DC medium, supplemented with 20 iU/ml IL-2 and 5 ng/ml IL-7) and wells with slow growing cells were mixed together (see step b) above).
d) Third Stimulation (Day 19) and Testing for Specificities in 3-Day T-Cell Proliferation Assay—Bulk Cultures • 1. Day 19: Harvested, washed and counted T-cells in the bulk cultures from 6.3;

Values joined by “and” are separate entries in the source; they are usually repeats but may differ in a detail not shown here. Equal values may be shown once.

For the substance Concanavalin A [ConA], the “Mean counts per minute (CPM) of stimulated splenocytes” value in the assay on splenocytes (Mean Mouse #4 (vaccinated with TG02)) was 15,210 CPM; in the assay with splenocytes (Mean Mouse #7 (vaccinated with TG02)), 6158 CPM; in the assay on splenocytes (Mean Mouse #24 (vaccinated with TG02+Viscogel)), 8823 CPM; in the assay with splenocytes (Mean Mouse #29 (vaccinated with TG02+Viscogel)) it was 10,935 CPM; with splenocytes (Mouse #30 mean line (vaccinated with TG02+Viscogel)) it was 36,687 CPM. The “Counts per minute (CPM) of stimulated splenocytes” value in the assay on splenocytes (Mouse #4 (vaccinated with TG02)) was 15,113 CPM and 12,612 CPM and 17,906 CPM; with splenocytes (Mouse #7 (vaccinated with TG02)), 5305 CPM and 6252 CPM and 6916 CPM; in the assay on splenocytes (Mouse #24 (vaccinated with TG02+Viscogel)), 7834 CPM and 8578 CPM and 10,057 CPM; with splenocytes (Mouse #29 (vaccinated with TG02+Viscogel)) it was 9480 CPM and 13,292 CPM and 10,033 CPM; in the assay with splenocytes (Mouse #30 (vaccinated with TG02+Viscogel)), 32,205 CPM and 35,668 CPM and 42,149 CPM.
For the substance “GIPFIETSTKTRQRVED (listed as Homo sapiens) [A146T, KRAS peptide having a A146T mutation]”, the “T-cell proliferation after stimulation with A146T peptide (result in words)” value was “immunogenic and is efficient in inducing T-cell proliferation” in the assay with T-cells [1]; “stimulates induction of T-cells” with T-cells [1] (listed as A146T peptide). Besides, the “Total T cell numbers in cultures” value in the assay with T-cells [2] (Buffy 5) is 4 × 10^6; in the assay on T-cells [2] (Buffy 6) it was 4 × 10^6; in the assay on T-cells [2] (Buffy 7), 6.8 × 10^6. Moreover, the entries for the “Total T cell numbers” value in the assay on T-cells [2] (Buffy 5), with T-cells [2] (Buffy 6) and in the assay with T-cells [2] (Buffy 7) were 10.8 × 10^6, 12.6 × 10^6 and 14.4 × 10^6, respectively.
